Source: ChEMBL document CHEMBL1201862, “PubChem BioAssay data set” (2004)
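Briefly, cells in 96-well plates were exposed to five compound concentrations for 48 h, and endpoints were estimated by linear interpolation. GI50 marks 50% less growth.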 Activity calls are given as the source filed them. Rule as the data show it: active = GI50 up to about 1.1 µM and inactive = higher.

Legend:
Assay in all cases: NCI-60 cell line screen, 48 h
[1] = test system: DMS-114
[2] = test system: XF498
[3] = test system: DLD-1
[4] = test system: MDA-MB-231

## CCCCCC(/C=C/c1ncccc1OCCCCCC(=O)O)=N\NC1=NCCN1
[1]
  GI50: 45.2 µM (inactive)
[2]
  GI50: 27.3 µM (inactive)

## CC(=O)Nc1ccc(C(=O)NN2C(=O)C(Cl)C2c2cccc([N+](=O)[O-])c2)cc1 (centres undefined)
[3]
  GI50: > 100 µM (inactive)

## CCOC(=O)c1c(-c2cccc(Cl)c2)c(C(=O)OC)c(C)c2sc(C=O)nc12
[4]
  GI50: 15.6 µM (inactive)
